Tested on: mouse leukemia P388 cells
Test: Antitumor activity (increase in life-span) in mice transplanted with mouse leukemia P388 cells
Type: in vivo
Conditions: relative value of percent increase in life-span (ILS), dolastatin 10 ILS regarded as 1; P388 cells (10^6 per mouse) in abdominal cavity of CDF1 mice; drug intraperitoneally on first and fifth day; observed for 60 days
Protocol: 0.1 ml (10^6 cells per mouse) each of mouse leukemia P388 cells was transplanted into the abdominal cavity of 7-weeks-old CDF1 mice. […] Then, the percent increase in life-span (ILS) was calculated from the results of observation according to the following equation. In the following equation, T designates the median number of days for which the mice of the drug-treated group survived, and C designates the median number of days for which the mice of the control group survived. [formula]
The antitumor activity of each drug is expressed as a relative value based on the antitumor activity of dolastatin 10 for which ILS is regarded as 1.

For dolastatin 10, the Antitumor activity was 1.

Reference: patent publication US5840699A, “Peptide derivatives” (Teikoku Hormone Mfg. Co. Ltd., priority 1995, dated 1998)
